{"source": "the supplement of paper PMC10307832", "assay_in_all_cases": "relative viability (nuclei count vs DMSO), 5 days (fraction); higher = more cells survive", "key": {"LU99A": {"test_system": "LU99A", "procedure,_shortened": "(§1)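 One day after seeding in 1536-well plates, lung cancer cell lines were dosed by pin tool. Dosing was either single-drug or a fixed anchor-drug dose plus five library-drug doses (not always all listed) in √10 steps. After 5 days, nuclei were stained in one fix-and-stain step and counted on 4× images, and relative viability is the nuclei count of treated wells over that of vehicle wells, given as the median of duplicate plates.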"}, "NCI-H460": {"test_system": "NCI-H460", "procedure,_shortened": "as §1"}, "NCI-H1437": {"test_system": "NCI-H1437", "procedure,_shortened": "as §1"}, "BEN": {"test_system": "BEN", "procedure,_shortened": "as §1"}, "NCI-H1734": {"test_system": "NCI-H1734", "procedure,_shortened": "as §1"}, "NCI-H2085": {"test_system": "NCI-H2085", "procedure,_shortened": "as §1"}, "NCI-H1355": {"test_system": "NCI-H1355", "procedure,_shortened": "as §1"}, "NCI-H1650": {"test_system": "NCI-H1650", "procedure,_shortened": "as §1"}, "NCI-H1793": {"test_system": "NCI-H1793", "procedure,_shortened": "as §1"}, "SK-LU-1": {"test_system": "SK-LU-1", "procedure,_shortened": "as §1"}, "NCI-H1975": {"test_system": "NCI-H1975", "procedure,_shortened": "as §1"}, "CAL-12T": {"test_system": "CAL-12T", "procedure,_shortened": "as §1"}, "COR-L23": {"test_system": "COR-L23", "procedure,_shortened": "as §1"}, "NCI-H441": {"test_system": "NCI-H441", "procedure,_shortened": "as §1"}, "NCI-H1563": {"test_system": "NCI-H1563", "procedure,_shortened": "as §1"}, "NCI-H1651": {"test_system": "NCI-H1651", "procedure,_shortened": "as §1"}, "LOU-NH91": {"test_system": "LOU-NH91", "procedure,_shortened": "as §1"}, "NCI-H358": {"test_system": "NCI-H358", "procedure,_shortened": "as §1"}, "NCI-H838": {"test_system": "NCI-H838", "procedure,_shortened": "as §1"}, "NCI-H2023": {"test_system": "NCI-H2023", "procedure,_shortened": "as §1"}, "HCC-366": {"test_system": "HCC-366", "procedure,_shortened": "as §1"}}}
{"smiles": "COc1cc2nccc(Oc3ccc(NC(=O)Nc4cc(C)on4)c(Cl)c3)c2cc1OC", "note": "[Tivozanib] + CS(=O)(=O)N1CCN(Cc2cc3nc(-c4cccc5[nH]ncc45)nc(N4CCOCC4)c3s2)CC1 [Pictilisib] (partner 1 µM)", "values": [{"measurement": "relative viability", "setting": "LU99A; first compound 0.005 µM", "value": 0.315}, {"measurement": "relative viability", "setting": "LU99A; first compound 0.01581 µM", "value": 0.339}, {"measurement": "relative viability", "setting": "LU99A; first compound 0.05 µM", "value": 0.348}, {"measurement": "relative viability", "setting": "LU99A; first compound 0.5 µM", "value": 0.317}, {"measurement": "relative viability", "setting": "NCI-H460; first compound 0.005 µM", "value": 0.337}, {"measurement": "relative viability", "setting": "NCI-H460; first compound 0.01581 µM", "value": 0.296}, {"measurement": "relative viability", "setting": "NCI-H460; first compound 0.05 µM", "value": 0.449}, {"measurement": "relative viability", "setting": "NCI-H460; first compound 0.1581 µM", "value": 0.253}, {"measurement": "relative viability", "setting": "NCI-H460; first compound 0.5 µM", "value": 0.36}, {"measurement": "relative viability", "setting": "NCI-H1437; first compound 0.005 µM", "value": 0.347}, {"measurement": "relative viability", "setting": "NCI-H1437; first compound 0.01581 µM", "value": 0.463}, {"measurement": "relative viability", "setting": "NCI-H1437; first compound 0.05 µM", "value": 0.401}, {"measurement": "relative viability", "setting": "NCI-H1437; first compound 0.1581 µM", "value": 0.177}, {"measurement": "relative viability", "setting": "NCI-H1437; first compound 0.5 µM", "value": 0.52}, {"measurement": "relative viability", "setting": "BEN; first compound 0.005 µM", "value": 0.61}, {"measurement": "relative viability", "setting": "BEN; first compound 0.01581 µM", "value": 0.541}, {"measurement": "relative viability", "setting": "BEN; first compound 0.05 µM", "value": 0.603}, {"measurement": "relative viability", "setting": "BEN; first compound 0.5 µM", "value": 0.505}, {"measurement": "relative viability", "setting": "NCI-H1734; first compound 0.005 µM", "value": 0.45}, {"measurement": "relative viability", "setting": "NCI-H1734; first compound 0.01581 µM", "value": 0.443}, {"measurement": "relative viability", "setting": "NCI-H1734; first compound 0.05 µM", "value": 0.456}, {"measurement": "relative viability", "setting": "NCI-H1734; first compound 0.1581 µM", "value": 0.359}, {"measurement": "relative viability", "setting": "NCI-H1734; first compound 0.5 µM", "value": 0.442}, {"measurement": "relative viability", "setting": "NCI-H2085; first compound 0.005 µM", "value": 0.474}, {"measurement": "relative viability", "setting": "NCI-H2085; first compound 0.01581 µM", "value": 0.456}, {"measurement": "relative viability", "setting": "NCI-H2085; first compound 0.05 µM", "value": 0.536}, {"measurement": "relative viability", "setting": "NCI-H2085; first compound 0.1581 µM", "value": 0.405}, {"measurement": "relative viability", "setting": "NCI-H2085; first compound 0.5 µM", "value": 0.408}, {"measurement": "relative viability", "setting": "NCI-H1355; first compound 0.005 µM", "value": 0.381}, {"measurement": "relative viability", "setting": "NCI-H1355; first compound 0.01581 µM", "value": 0.41}, {"measurement": "relative viability", "setting": "NCI-H1355; first compound 0.05 µM", "value": 0.441}, {"measurement": "relative viability", "setting": "NCI-H1355; first compound 0.5 µM", "value": 0.387}, {"measurement": "relative viability", "setting": "NCI-H1650; first compound 0.005 µM", "value": 0.561}, {"measurement": "relative viability", "setting": "NCI-H1650; first compound 0.01581 µM", "value": 0.594}, {"measurement": "relative viability", "setting": "NCI-H1650; first compound 0.05 µM", "value": 0.621}, {"measurement": "relative viability", "setting": "NCI-H1650; first compound 0.1581 µM", "value": 0.558}, {"measurement": "relative viability", "setting": "NCI-H1650; first compound 0.5 µM", "value": 0.498}, {"measurement": "relative viability", "setting": "NCI-H1793; first compound 0.005 µM", "value": 0.222}, {"measurement": "relative viability", "setting": "NCI-H1793; first compound 0.01581 µM", "value": 0.257}, {"measurement": "relative viability", "setting": "NCI-H1793; first compound 0.05 µM", "value": 0.364}, {"measurement": "relative viability", "setting": "NCI-H1793; first compound 0.5 µM", "value": 0.292}, {"measurement": "relative viability", "setting": "SK-LU-1; first compound 0.005 µM", "value": 0.618}, {"measurement": "relative viability", "setting": "SK-LU-1; first compound 0.01581 µM", "value": 0.465}, {"measurement": "relative viability", "setting": "SK-LU-1; first compound 0.05 µM", "value": 0.483}, {"measurement": "relative viability", "setting": "SK-LU-1; first compound 0.1581 µM", "value": 0.336}, {"measurement": "relative viability", "setting": "SK-LU-1; first compound 0.5 µM", "value": 0.55}, {"measurement": "relative viability", "setting": "NCI-H1975; first compound 0.005 µM", "value": 0.278}, {"measurement": "relative viability", "setting": "NCI-H1975; first compound 0.01581 µM", "value": 0.277}, {"measurement": "relative viability", "setting": "NCI-H1975; first compound 0.05 µM", "value": 0.271}, {"measurement": "relative viability", "setting": "NCI-H1975; first compound 0.1581 µM", "value": 0.234}, {"measurement": "relative viability", "setting": "NCI-H1975; first compound 0.5 µM", "value": 0.275}, {"measurement": "relative viability", "setting": "CAL-12T; first compound 0.005 µM", "value": 0.212}, {"measurement": "relative viability", "setting": "CAL-12T; first compound 0.01581 µM", "value": 0.445}, {"measurement": "relative viability", "setting": "CAL-12T; first compound 0.05 µM", "value": 0.608}, {"measurement": "relative viability", "setting": "CAL-12T; first compound 0.5 µM", "value": 0.404}, {"measurement": "relative viability", "setting": "COR-L23; first compound 0.005 µM", "value": 0.733}, {"measurement": "relative viability", "setting": "COR-L23; first compound 0.01581 µM", "value": 0.74}, {"measurement": "relative viability", "setting": "COR-L23; first compound 0.05 µM", "value": 0.917}, {"measurement": "relative viability", "setting": "COR-L23; first compound 0.1581 µM", "value": 0.575}, {"measurement": "relative viability", "setting": "COR-L23; first compound 0.5 µM", "value": 0.565}, {"measurement": "relative viability", "setting": "NCI-H441; first compound 0.005 µM", "value": 0.571}, {"measurement": "relative viability", "setting": "NCI-H441; first compound 0.01581 µM", "value": 0.511}, {"measurement": "relative viability", "setting": "NCI-H441; first compound 0.05 µM", "value": 0.536}, {"measurement": "relative viability", "setting": "NCI-H441; first compound 0.1581 µM", "value": 0.484}, {"measurement": "relative viability", "setting": "NCI-H441; first compound 0.5 µM", "value": 0.31}, {"measurement": "relative viability", "setting": "NCI-H1563; first compound 0.005 µM", "value": 0.668}, {"measurement": "relative viability", "setting": "NCI-H1563; first compound 0.01581 µM", "value": 0.729}, {"measurement": "relative viability", "setting": "NCI-H1563; first compound 0.05 µM", "value": 0.622}, {"measurement": "relative viability", "setting": "NCI-H1563; first compound 0.1581 µM", "value": 0.699}, {"measurement": "relative viability", "setting": "NCI-H1563; first compound 0.5 µM", "value": 0.581}, {"measurement": "relative viability", "setting": "NCI-H1651; first compound 0.005 µM", "value": 0.464}, {"measurement": "relative viability", "setting": "NCI-H1651; first compound 0.01581 µM", "value": 0.581}, {"measurement": "relative viability", "setting": "NCI-H1651; first compound 0.05 µM", "value": 0.613}, {"measurement": "relative viability", "setting": "NCI-H1651; first compound 0.1581 µM", "value": 0.484}, {"measurement": "relative viability", "setting": "NCI-H1651; first compound 0.5 µM", "value": 0.783}, {"measurement": "relative viability", "setting": "LOU-NH91; first compound 0.005 µM", "value": 0.467}, {"measurement": "relative viability", "setting": "LOU-NH91; first compound 0.01581 µM", "value": 0.519}, {"measurement": "relative viability", "setting": "LOU-NH91; first compound 0.05 µM", "value": 0.559}, {"measurement": "relative viability", "setting": "LOU-NH91; first compound 0.1581 µM", "value": 0.485}, {"measurement": "relative viability", "setting": "LOU-NH91; first compound 0.5 µM", "value": 0.526}, {"measurement": "relative viability", "setting": "NCI-H358; first compound 0.005 µM", "value": 0.345}, {"measurement": "relative viability", "setting": "NCI-H358; first compound 0.01581 µM", "value": 0.332}, {"measurement": "relative viability", "setting": "NCI-H358; first compound 0.05 µM", "value": 0.386}, {"measurement": "relative viability", "setting": "NCI-H358; first compound 0.1581 µM", "value": 0.254}, {"measurement": "relative viability", "setting": "NCI-H358; first compound 0.5 µM", "value": 0.367}, {"measurement": "relative viability", "setting": "NCI-H838; first compound 0.005 µM", "value": 0.443}, {"measurement": "relative viability", "setting": "NCI-H838; first compound 0.01581 µM", "value": 0.498}, {"measurement": "relative viability", "setting": "NCI-H838; first compound 0.05 µM", "value": 0.453}, {"measurement": "relative viability", "setting": "NCI-H838; first compound 0.5 µM", "value": 0.501}, {"measurement": "relative viability", "setting": "NCI-H2023; first compound 0.005 µM", "value": 0.238}, {"measurement": "relative viability", "setting": "NCI-H2023; first compound 0.01581 µM", "value": 0.228}, {"measurement": "relative viability", "setting": "NCI-H2023; first compound 0.05 µM", "value": 0.249}, {"measurement": "relative viability", "setting": "NCI-H2023; first compound 0.1581 µM", "value": 0.178}, {"measurement": "relative viability", "setting": "NCI-H2023; first compound 0.5 µM", "value": 0.195}, {"measurement": "relative viability", "setting": "HCC-366; first compound 0.005 µM", "value": 0.126}, {"measurement": "relative viability", "setting": "HCC-366; first compound 0.01581 µM", "value": 0.179}, {"measurement": "relative viability", "setting": "HCC-366; first compound 0.05 µM", "value": 0.103}, {"measurement": "relative viability", "setting": "HCC-366; first compound 0.1581 µM", "value": 0.189}, {"measurement": "relative viability", "setting": "HCC-366; first compound 0.5 µM", "value": 0.175}]}
